We go through one compound from PMC5365662, “A Short Double-Stapled Peptide Inhibits Respiratory Syncytial Virus Entry and Spreading” (Antimicrobial Agents and Chemotherapy, 2017).

Bridge positions count the residues as written; N and C are the ends. Square brackets hold non-standard residues; d marks the D form. Peptide text beside a SMILES is read from it. R5 = C=CCCC[C@@](C)(N)C(=O)O; S5 = C=CCCC[C@](C)(N)C(=O)O

One series concerns HEp-2 cells. Briefly: Cytotoxicity, CellTiter-Glo Luminescent cell viability assay. The series is classed as cell-based. To be noted: serial dilutions of peptide, 24 h, duplicates. Here is the method: Viral replication was quantified by measuring the mCherry fluorescence at 48 h p.i. and normalized based on the fluorescence of infected and untreated cells. (B) Cytotoxicity assay. HEp-2 cells were incubated in the presence of serial dilutions of peptides, and cell survival was quantified using the CellTiter-Glo Luminescent cell viability assay 24 h after the addition of the peptides. The signal was normalized based on the luminescence obtained for untreated cells. Error bars are standard deviations from duplicates.
A549 (ATCC CCL-185) cells were maintained in Dulbecco's modified Eagle medium (DMEM) supplemented with 10% fetal calf serum (FCS). HEp-2 (ATCC CCL-23) cells were maintained in Eagle's miminum essential medium (EMEM) supplemented with 10% FCS, 2 mM L-glutamine, and penicillin-streptomycin solution. The cells were grown in an incubator at 37°C in 5% CO2. Cytotoxicity assays were done with the CellTiter-Glo Luminescent cell viability assay (Promega).

The next series concerns rHRSV-Luc. Description: RSV infection of mice, intranasal treatment, in vivo luminescence. The following applies: BALB/c, n = 4. Here is the method:
In order to track the infection, we used the recombinant virus rHRSV-Luc, which was previously shown to allow in vivo imaging studies of RSV replication and spreading and constitutes a powerful and convenient tool for the evaluation of drug efficiency against RSV in the mouse model ([24]). […] Mice were anesthetized at day 3 p.i. and observed alive using the IVIS imaging system 5 min after i.n. injection of D-luciferin. […] At day 3 p.i., a second dose of the peptide was administered to the mice, and the bioluminescence was measured at day 5 p.i. […]
Female BALB/c mice were purchased from the Centre d'Elevage R. Janvier (Le Genest Saint-Isle, France) and were used at 8 weeks of age. […] Luminescence measurement was then performed at day 5 p.i.
Mice were anesthetized, and luminescence was measured 5 min following i.n. injection of 50 μl of PBS containing 0.75 mg kg^−1 of body weight D-luciferin (Sigma). Photon emission of mock-infected and rHRSV-Luc-infected mice was measured using the IVIS 200 imaging system (Xenogen Corp.). […] Digital false-color photon emission images of mice were generated, and photons were counted within a constant region of interest corresponding to the surface of the chest encompassing the whole-airway area. Photon emission was measured as radiance in photons per second per square centimeter per steradian (p s^−1 cm^−2 sr^−1).

Series [1] in a line: Histological analysis of lungs. The series is classed as in vivo, BALB/c mice. Here is the method:
In order to track the infection, we used the recombinant virus rHRSV-Luc, which was previously shown to allow in vivo imaging studies of RSV replication and spreading and constitutes a powerful and convenient tool for the evaluation of drug efficiency against RSV in the mouse model ([24]). […] Mice were anesthetized at day 3 p.i. and observed alive using the IVIS imaging system 5 min after i.n. injection of D-luciferin. […] At day 3 p.i., a second dose of the peptide was administered to the mice, and the bioluminescence was measured at day 5 p.i. […] At day 7 p.i., a time corresponding to the end of the infection in mice, the animals were sacrificed and the lungs were collected in order to perform a histological analysis. […]
Mice were sacrificed at day 7 p.i., the chest cavity was opened, and the lungs were perfused intratracheally with 4% paraformaldehyde (PFA) in PBS. […] The lungs were embedded in paraffin, and 5-μm sections were cut, stained with hematoxylin-eosin-saffron (HES), and evaluated microscopically. Qualitative histological changes were described and when applicable were scored semiquantitatively using a three-point scale from 0 to 2 (0, none; 1, mild; 2, marked), focusing on histological characterization of lesions (interstitial pneumonia, respiratory epithelial cell apoptosis, and hyperplasia) and inflammation.

Series [2] is classed as in vivo. To be noted: noninfected mice, same i.n. protocol, blood 1 month after first inoculation, ELISA, data not shown. Here is the method: To investigate this further, peptide 4ca was administered to noninfected animals according to the same protocol. The blood of mice was collected 1 month after the first inoculation, and the presence of anti-4ca antibodies in the sera of these animals was analyzed by enzyme-linked immunosorbent assay (ELISA).

For `CC[C@H](C)[C@@H]1NC(=O)[C@H](Cc2ccccc2)NC(=O)[C@@](C)(NC(=O)[C@H](CC(C)C)NC(=O)[C@H](CO)NC(=O)[C@]2(C)CCCC=CCCC[C@@](C)(NC(=O)[C@H](CCC(=O)O)NC(C)=O)C(=O)N[C@@H]([C@@H](C)CC)C(=O)N[C@@H](CC(N)=O)C(=O)N2)CCCC=CCCC[C@@](C)(C(=O)N[C@@H](CO)C(=O)N[C@@H](CC(=O)O)C(=O)N[C@@H](CCC(=O)O)C(=O)N[C@@H](CC(C)C)C(=O)N[C@@H](CC(C)C)C(=O)N[C@@H](Cc2c[nH]cn2)C(=O)N[C@@H](CC(N)=O)C(=O)N[C@H](C(N)=O)C(C)C)NC(=O)[C@H](CCCNC(=N)N)NC1=O` [Peptide 4ca] (Ac-E[R5]IN[S5]SL[S5]FIR[S5]SDELLHNV-NH2; staple 2-5, 8-12), in the series with HEp-2 cells, the cellular toxicity result is on record as “no cellular toxicity was detected”. Besides, in the series on rHRSV-Luc (i.n. 50 μl at 50 μM in PBS at day 0 (10 min before rHRSV-Luc 5 × 10^4 PFU) and day 3, day 5 p.i.), the “decrease of viral infection versus untreated mice (bioluminescence)” value was 3 fold. Besides, the “bioluminescence in snout and lungs versus control mice” value in the series on rHRSV-Luc (i.n. 50 μl at 50 μM in PBS, rHRSV-Luc 5 × 10^4 PFU, day 3 p.i.) is given as “clearly reduced”. For the same compound, the “histological changes in lung parenchyma (toxicity)” value in series [1] (4ca-inoculated versus mock-inoculated noninfected mice, i.n. 50 μl at 50 μM, day 7, HES staining) is given as “no histological changes”. In addition, the “interstitial pneumonia after RSV infection” value in series [1] (RSV-infected mice treated i.n. with 4ca, day 7 p.i., HES staining) was “no interstitial pneumonia was observed”. In series [2], the “antibodies specific to 4ca in sera (anti-IgG1, anti-IgG2a, anti-IgA)” value was “no antibodies specific to 4ca could be detected”.
